In publication PMC6445228, “Synthesis and biological evaluation of anti-Toxoplasma gondii activity of a novel scaffold of thiazolidinone derivatives” (Journal of Enzyme Inhibition and Medicinal Chemistry, 2017):
pIC50: −log10 of the molar value. Read-outs that look alike come from different tables or passages of the source.

Columns and labels:
[1] = system: T. gondii RH-2 F tachyzoites; experiment: Five-day growth inhibition assay (tachyzoite growth, colorimetric); format: cell-based, Toxoplasma gondii; settings: 120 h, T. gondii RH-2 F in HFF, three experiments; for pIC50: read-out: IC50, median inhibitory concentration, a measure of tachyzoite inhibition; for IC90: read-out: IC90, concentration at which 90% of the tachyzoite growth is inhibited
Procedure: (§1) Using published methods[8]^,[19], all of the prepared N-substituted thiazolidinones derivatives were evaluated in vitro for (i) host cell cytotoxicity as well as for the ability to inhibit tachyzoite growth over a period of 5 days (Table 1), for (ii) the ability to inhibit tachyzoite invasion of host cells (Figure 1), and for (iii) the ability to inhibit intracellular tachyzoite replication (Figure 2).
(§2) Compounds were tested for the ability to inhibit in vitro tachyzoite (T. gondii RH-2 F (50839); ATCC, VA) and human foreskin fibroblast (HFF; ATCC) growth for 120 h using a published colorimetric assay[8]^,[19]. Stock solutions of all compounds were 10 mM in DMSO. Serial 0.5 log10 dilutions (320–0.032 μM) of each compound were tested. Data from three separate experiments were analysed and the IC50, IC90, and TD50 calculated using Calcusyn software (Biosoft, Cambridge, UK). The therapeutic index (TI), a measure of specific anti-T. gondii activity, was calculated with the formula shown under Table 1.
We explored the chemical space and the influence on the biological activity of different groups (substituted aromatic and bicyclic rings) at the lactam NH of the core nucleus. […] In the five-day growth inhibition assay, compounds were added only once, just before addition of tachyzoites, and thus were present for multiple cycles, up to 20, of parasite replication.

[2] = system: human foreskin fibroblast (HFF); experiment: Five-day growth inhibition assay, host cell cytotoxicity; settings: 120 h
Procedure: as §1, §2

[3] = HFF cells, top concentration 320 μM

Row | SMILES | pIC50 ([1]; Toxoplasma gondii) | IC90 ([1]; Toxoplasma gondii) | TD50, median toxicity dose, a measure of cytotoxicity against host cells ([2]; human) | melting point | pIC50 [1] | IC90 [1] | TD50, median toxicity dose, a measure of cytotoxicity against host cells [2, 3]
1 | CC(=NN=C1SCC(=O)N1Cc1ccc(Cl)cc1)c1cccs1 [Compound 26, 3-(4-Chlorobenzyl)-2-((1-(thiophen-2-yl)ethylidene)hydrazono)thiazolidin-4-one] | 4.09 | 211 µM | ≥320 µM | 146 to 151 °C | – | – | –
2 | CCCCC(CC)=NN=C1SCC(=O)N1Cc1cccc(F)c1 [Compound 13, 3-(3-Fluorobenzyl)-2-((heptan-3-ylidene)hydrazono)thiazolidin-4-one] | 4.74 | 99 µM | 246 µM | 30 to 31 °C | – | – | –
3 | CCCCC(CC)=NN=C1SCC(=O)N1Cc1ccc([N+](=O)[O-])cc1 [Compound 7, 2-((Heptan-3-ylidene)hydrazono)-3-(4-nitrobenzyl)thiazolidin-4-one] | 4.49 | 128 µM | 98 µM | – | – | – | –
4 | CC(=NN=C1SCC(=O)N1Cc1cccc([N+](=O)[O-])c1)c1cccs1 [Compound 5, 3-(3-Nitrobenzyl)-2-((1-(thiophen-2-yl)ethylidene)hydrazono)thiazolidin-4-one] | 4.28 | 171 µM | ≥320 µM | 165 to 170 °C | – | – | –
5 | CC(=NN=C1SCC(=O)N1Cc1cccc(Cl)c1)c1cccs1 [Compound 23, 3-(3-Chlorobenzyl)-2-((1-(thiophen-2-yl)ethylidene)hydrazono)thiazolidin-4-one] | 4.29 | 256 µM | 147 µM | 129 to 131 °C | – | – | –
6 | CC(=NN=C1SCC(=O)N1Cc1cccc([N+](=O)[O-])c1)c1ccc[cH-]1.[Fe+2].c1cc[cH-]c1 [Compound 6, 3-(3-Nitrobenzyl)-2-((1-(ferrocen-2-yl)ethylidene)hydrazono)thiazolidin-4-one] | – | – | – | – | 4.62 | 152 µM | ≥320 µM
7 | CCCCC(CC)=NN=C1SCC(=O)N1Cc1ccc(Cl)cc1 [Compound 25, 3-(4-Chlorobenzyl)-2-((heptan-3-ylidene)hydrazono)thiazolidin-4-one] | 4.29 | 131 µM | 244 µM | – | – | – | –
8 | CC(=NN=C1SCC(=O)N1Cc1ccc(F)cc1)c1cccs1 [Compound 17, 3-(4-Fluorobenzyl)-2-((1-(thiophen-2-yl)ethylidene)hydrazono)thiazolidin-4-one] | 4.14 | 312 µM | ≥320 µM | 118 to 123 °C | – | – | –
9 | CC(=NN=C1SCC(=O)N1Cc1cccc(Cl)c1)c1ccc[cH-]1.[Fe+2].c1cc[cH-]c1 [Compound 24, 3-(3-Chlorobenzyl)-2-((1-(ferrocen-2-yl)ethylidene)hydrazono)thiazolidin-4-one] | – | – | – | – | 5.10 | 17 µM | ≥320 µM
10 | CC(=NN=C1SCC(=O)N1Cc1ccccc1F)c1cccs1 [Compound 11, 3-(2-Fluorobenzyl)-2-((1-(thiophen-2-yl)ethylidene)hydrazono)thiazolidin-4-one] | 4.60 | 103 µM | 82 µM | 80 to 85 °C | – | – | –
11 | CCCCC(CC)=NN=C1SCC(=O)N1CN1C(=O)c2ccccc2C1=O [Compound 31, 2-((2-((Heptan-3-ylidene)hydrazono)-4-oxothiazolidin-3-yl)methyl)isoindoline-1,3-dione] | 4.06 | 402 µM | ≥320 µM | – | – | – | –
12 | CCCCC(CC)=NN=C1SCC(=O)N1Cc1ccccc1Cl [Compound 19, 3-(2-Chlorobenzyl)-2-((heptan-3-ylidene)hydrazono)thiazolidin-4-one] | 4.41 | 183 µM | 95 µM | – | – | – | –
13 | CC(=NN=C1SCC(=O)N1Cc1ccccc1[N+](=O)[O-])c1cccs1 [Compound 2, 3-(2-Nitrobenzyl)-2-((1-(thiophen-2-yl)ethylidene)hydrazono)thiazolidin-4-one] | 4.43 | 155 µM | 280 µM | 150 to 151 °C | – | – | –
14 | CCCCC(CC)=NN=C1SCC(=O)N1Cc1ccccc1[N+](=O)[O-] [Compound 1, 2-((Heptan-3-ylidene)hydrazono)-3-(2-nitrobenzyl)thiazolidin-4-one] | 4.70 | 111 µM | 236 µM | 67 to 69 °C | – | – | –
15 | O=C1C(O)=C([C@H]2CC[C@H](c3ccc(Cl)cc3)CC2)C(=O)c2ccccc21 [Atovaquone, reference compound] | 6.70 | 2 µM | 24 µM | – | – | – | –
16 | CCCCC(CC)=NN=C1SCC(=O)N1Cc1ccc(F)cc1 [Compound 16, 3–(4-Fluorobenzyl)-2-((heptan-3-ylidene)hydrazono)thiazolidin-4-one] | 4.54 | 107 µM | 192 µM | – | – | – | –
17 | CCCCC(CC)=NN=C1SCC(=O)N1Cc1cccc([N+](=O)[O-])c1 [Compound 4, 2-((Heptan-3-ylidene)hydrazono)-3–(3-nitrobenzyl)thiazolidin-4-one] | 4.36 | 138 µM | 68 µM | – | – | – | –
18 | CCCCC(CC)=NN=C1SCC(=O)N1Cc1cccc(Cl)c1 [Compound 22, 3-(3-Chlorobenzyl)-2-((heptan-3-ylidene)hydrazono)thiazolidin-4-one] | 4.72 | 106 µM | 165 µM | – | – | – | –
19 | CC(=NN=C1SCC(=O)N1Cc1cccc(F)c1)c1cccs1 [Compound 14, 3-(3-Fluorobenzyl)-2-((1-(thiophen-2-yl)ethylidene)hydrazono)thiazolidin-4-one] | 4.35 | 147 µM | 178 µM | 84 to 85 °C | – | – | –
20 | CCCCC(CC)=NN=C1SCC(=O)N1Cc1cccc2ccccc12 [Compound 28, 2-((Heptan-3-ylidene)hydrazono)-3-(naphthalen-1-ylmethyl)thiazolidin-4-one] | 4.43 | 138 µM | 271 µM | – | – | – | –
21 | CCCCC(CC)=NN=C1SCC(=O)N1Cc1ccccc1F [Compound 10, 3-(2-Fluorobenzyl)-2-((heptan-3-ylidene)hydrazono)thiazolidin-4-one] | 4.62 | 104 µM | 90 µM | – | – | – | –
22 | CC(=NN=C1SCC(=O)N1CN1C(=O)c2ccccc2C1=O)c1ccc[cH-]1.[Fe+2].c1cc[cH-]c1 [Compound 33, 2-((4-Oxo-2-((1-(ferrocen-2-yl)ethylidene)hydrazono)thiazolidin-3-yl)methyl)isoindoline-1,3-dione] | – | – | – | – | 4.09 | 286 µM | 138 µM
23 | CC(=NN=C1SCC(=O)N1Cc1ccccc1Cl)c1ccc[cH-]1.[Fe+2].c1cc[cH-]c1 [Compound 21, 3-(2-Chlorobenzyl)-2-((1-(ferrocen-2-yl)ethylidene)hydrazono)thiazolidin-4-one] | – | – | – | – | 5.05 | 24 µM | ≥320 µM
